Test results published in ChEMBL document CHEMBL4325862, “Identification of novel quinazoline derivatives as potent antiplasmodial agents” (Eur J Med Chem, 2019).
Activity calls are given as the source filed them. No cut-off for these calls is given here.

What was measured:
Plasmodium berghei [1] = assay: Antimalarial activity against Plasmodium berghei ANKA infected in BALB/c mouse assessed as reduction in parasitemia at 50 mg/kg, po administered twice daily for 4 days by Giemsa-staining based microscopic analysis; format: functional, organism-based
[2] = target: DNA (cytosine-5)-methyltransferase 3A (Homo sapiens, UniProt Q9Y6K1); assay: Inhibition of recombinant human DNMT3a C-terminal catalytic domain (623 to 908 residues) using 5'-biotinylated/3'-FAM-oligonucleotide as substrate measured after 1 hr in presence of Adomet by fluorescence assay
DNA (cytosine-5)-methyltransferase 3A, sequence (Q9Y6K1 whole entry, looked up, the tested form may be a part): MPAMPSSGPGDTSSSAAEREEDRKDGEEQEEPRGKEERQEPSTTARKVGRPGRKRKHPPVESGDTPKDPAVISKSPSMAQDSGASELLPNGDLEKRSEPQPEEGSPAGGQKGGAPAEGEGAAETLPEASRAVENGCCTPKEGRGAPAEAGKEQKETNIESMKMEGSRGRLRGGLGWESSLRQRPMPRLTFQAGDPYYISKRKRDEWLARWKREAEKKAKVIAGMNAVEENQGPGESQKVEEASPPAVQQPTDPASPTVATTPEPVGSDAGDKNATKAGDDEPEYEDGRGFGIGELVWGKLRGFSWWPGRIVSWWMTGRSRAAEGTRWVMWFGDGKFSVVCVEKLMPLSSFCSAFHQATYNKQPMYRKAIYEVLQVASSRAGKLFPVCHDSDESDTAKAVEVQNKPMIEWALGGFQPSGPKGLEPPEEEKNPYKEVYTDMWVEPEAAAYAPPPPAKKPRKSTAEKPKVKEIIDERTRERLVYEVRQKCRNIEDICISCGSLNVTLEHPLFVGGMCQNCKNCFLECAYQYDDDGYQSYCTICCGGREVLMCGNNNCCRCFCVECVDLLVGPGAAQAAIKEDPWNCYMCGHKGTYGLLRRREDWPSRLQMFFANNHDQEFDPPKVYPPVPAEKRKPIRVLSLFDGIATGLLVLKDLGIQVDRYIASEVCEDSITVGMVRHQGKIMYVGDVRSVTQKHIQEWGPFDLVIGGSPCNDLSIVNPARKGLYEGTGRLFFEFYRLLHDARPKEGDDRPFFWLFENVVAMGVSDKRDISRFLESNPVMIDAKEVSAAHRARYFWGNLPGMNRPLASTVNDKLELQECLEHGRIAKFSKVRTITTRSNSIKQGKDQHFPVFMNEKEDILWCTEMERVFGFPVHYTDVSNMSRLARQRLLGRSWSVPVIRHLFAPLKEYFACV

Plasmodium falciparum [3] = assay: Antiplasmodial activity against Plasmodium falciparum Dd2 infected in human erythrocytes assessed as reduction in [3H]-hypoxanthine incorporation measured after 48 hrs by microbeta liquid scintillation counting method; format: functional, organism-based
[4] = target: DNA (cytosine-5)-methyltransferase 1 (Homo sapiens, UniProt P26358); assay: Inhibition of recombinant human DNMT1 using biotinylated DNA duplex as substrate measured after 2 hrs in presence of Adomet/[methyl-3H]Adomet by topcount method
DNA (cytosine-5)-methyltransferase 1, sequence (P26358 whole entry): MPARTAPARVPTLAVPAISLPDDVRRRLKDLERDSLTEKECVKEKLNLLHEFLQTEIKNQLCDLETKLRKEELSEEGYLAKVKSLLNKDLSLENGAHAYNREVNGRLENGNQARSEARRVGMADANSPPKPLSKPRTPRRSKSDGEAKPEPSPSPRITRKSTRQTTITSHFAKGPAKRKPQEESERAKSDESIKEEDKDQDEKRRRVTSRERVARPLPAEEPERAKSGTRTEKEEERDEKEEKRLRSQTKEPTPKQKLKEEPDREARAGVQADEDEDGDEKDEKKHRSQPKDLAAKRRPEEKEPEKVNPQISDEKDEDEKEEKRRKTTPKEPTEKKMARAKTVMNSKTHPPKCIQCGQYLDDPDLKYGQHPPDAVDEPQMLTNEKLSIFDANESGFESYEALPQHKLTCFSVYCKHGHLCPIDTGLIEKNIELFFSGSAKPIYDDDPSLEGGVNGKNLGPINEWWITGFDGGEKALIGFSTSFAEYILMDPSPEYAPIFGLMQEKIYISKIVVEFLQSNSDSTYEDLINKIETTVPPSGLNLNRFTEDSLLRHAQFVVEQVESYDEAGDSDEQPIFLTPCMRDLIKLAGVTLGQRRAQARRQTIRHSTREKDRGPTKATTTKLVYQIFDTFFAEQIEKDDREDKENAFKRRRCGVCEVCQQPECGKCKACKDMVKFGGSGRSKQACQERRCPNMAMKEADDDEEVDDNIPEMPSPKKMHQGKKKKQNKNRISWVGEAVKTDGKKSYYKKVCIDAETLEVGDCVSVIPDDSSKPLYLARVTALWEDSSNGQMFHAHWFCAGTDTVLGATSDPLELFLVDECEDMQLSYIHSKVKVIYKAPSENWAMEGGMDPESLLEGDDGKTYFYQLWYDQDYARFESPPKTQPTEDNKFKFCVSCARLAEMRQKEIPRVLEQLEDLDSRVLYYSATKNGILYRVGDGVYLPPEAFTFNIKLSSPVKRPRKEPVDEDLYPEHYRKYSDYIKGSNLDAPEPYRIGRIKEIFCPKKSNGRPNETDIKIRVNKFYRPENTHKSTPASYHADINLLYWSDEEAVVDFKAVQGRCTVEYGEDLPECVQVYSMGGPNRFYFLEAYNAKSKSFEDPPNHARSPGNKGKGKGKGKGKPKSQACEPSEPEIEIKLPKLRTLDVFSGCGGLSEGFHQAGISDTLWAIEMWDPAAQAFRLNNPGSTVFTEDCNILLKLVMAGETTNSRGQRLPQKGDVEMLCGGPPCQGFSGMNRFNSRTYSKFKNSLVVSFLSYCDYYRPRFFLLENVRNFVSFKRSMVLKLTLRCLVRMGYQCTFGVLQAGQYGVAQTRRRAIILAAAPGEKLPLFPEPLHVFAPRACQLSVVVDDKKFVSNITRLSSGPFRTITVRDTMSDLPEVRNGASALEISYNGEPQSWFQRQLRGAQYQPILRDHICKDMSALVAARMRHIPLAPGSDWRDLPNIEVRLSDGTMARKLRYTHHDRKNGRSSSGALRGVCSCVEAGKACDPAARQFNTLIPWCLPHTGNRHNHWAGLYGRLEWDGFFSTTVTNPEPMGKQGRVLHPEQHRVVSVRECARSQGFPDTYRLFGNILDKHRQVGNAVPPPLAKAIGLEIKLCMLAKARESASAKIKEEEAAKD

[5] = Selectivity index, ratio of IC50 for mouse spleen cells to IC50 for asynchronous form of Plasmodium falciparum 3D7 infected in human erythrocytes; format: toxicity, cell-based; details: read-out: Ratio IC50
Plasmodium falciparum [6] = assay: Antiplasmodial activity against asynchronous form of Plasmodium falciparum W2 infected in human erythrocytes assessed as parasite growth inhibition after 48 hrs by SYBR green1 staining based flow cytometry; format: functional, organism-based; details: W2, 48 h
[7] = Acute toxicity in Crl:NRMI mouse assessed as death at 50 mg/kg, iv measured after 15 to 180 mins by LC-MS/MS analysis; format: organism-based; details: in vivo
[8] = target: T1, Histone-lysine N-methyltransferase EHMT2 (Homo sapiens, UniProt Q96KQ7); assay: Inhibition of recombinant human N-terminal GST-fused G9a (786 to 1210 residues) expressed in Escherichia coli using biotinylated H3 (1 to 21 residues) as substrate measured after 1 hr in presence of 3H-Adomet by filter binding assay
T1 sequence (Q96KQ7 whole entry): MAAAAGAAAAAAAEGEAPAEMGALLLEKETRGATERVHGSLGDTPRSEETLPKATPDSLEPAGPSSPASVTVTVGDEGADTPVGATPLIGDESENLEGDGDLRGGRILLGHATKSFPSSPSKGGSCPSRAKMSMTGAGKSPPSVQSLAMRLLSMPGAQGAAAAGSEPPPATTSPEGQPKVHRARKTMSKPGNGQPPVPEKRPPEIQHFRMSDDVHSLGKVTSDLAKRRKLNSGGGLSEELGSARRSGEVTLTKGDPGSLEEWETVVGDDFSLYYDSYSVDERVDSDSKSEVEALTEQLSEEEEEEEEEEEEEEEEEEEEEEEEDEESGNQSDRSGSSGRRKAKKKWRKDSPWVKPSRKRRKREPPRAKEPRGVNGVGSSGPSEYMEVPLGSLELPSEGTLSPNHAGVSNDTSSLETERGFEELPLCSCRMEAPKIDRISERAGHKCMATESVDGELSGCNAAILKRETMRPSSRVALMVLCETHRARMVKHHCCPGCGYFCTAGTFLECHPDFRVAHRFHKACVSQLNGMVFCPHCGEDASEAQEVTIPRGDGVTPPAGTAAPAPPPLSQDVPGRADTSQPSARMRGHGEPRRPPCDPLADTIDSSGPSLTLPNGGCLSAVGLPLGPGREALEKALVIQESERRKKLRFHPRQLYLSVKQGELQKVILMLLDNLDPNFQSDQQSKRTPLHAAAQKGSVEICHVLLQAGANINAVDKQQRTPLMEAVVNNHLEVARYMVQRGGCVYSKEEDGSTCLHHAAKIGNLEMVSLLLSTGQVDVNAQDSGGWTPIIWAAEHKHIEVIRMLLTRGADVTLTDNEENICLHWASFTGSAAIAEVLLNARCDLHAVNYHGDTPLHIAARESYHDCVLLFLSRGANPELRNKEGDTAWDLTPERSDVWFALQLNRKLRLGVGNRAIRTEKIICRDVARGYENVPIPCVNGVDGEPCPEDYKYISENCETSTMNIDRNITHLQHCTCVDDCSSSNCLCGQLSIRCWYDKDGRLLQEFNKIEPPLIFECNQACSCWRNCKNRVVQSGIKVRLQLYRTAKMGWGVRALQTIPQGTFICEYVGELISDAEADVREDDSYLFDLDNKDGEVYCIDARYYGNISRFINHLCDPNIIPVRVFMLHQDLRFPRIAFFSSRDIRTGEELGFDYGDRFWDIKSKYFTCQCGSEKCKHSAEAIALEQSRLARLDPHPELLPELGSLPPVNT

[9] = Stability in phosphate buffered saline at pH 7.4 after 24 hrs by UV/RP-HPLC analysis; format: physicochemical; details: buffer, pH 7.4, 24 h
[10] = Plasma concentration in Crl:NRMI mouse at 50 mg/kg, po administered via gavage measured after 30 mins by LC-MS/MS analysis; format: ADME, organism-based
[11] = Plasma concentration in Crl:NRMI mouse at 50 mg/kg, po administered via gavage measured after 180 mins by LC-MS/MS analysis; format: ADME, organism-based
Plasmodium berghei [12] = assay: Antimalarial activity against Plasmodium berghei ANKA infected in BALB/c mouse assessed as parasitemia at 50 mg/kg, po administered twice daily for 4 days measured up to 14 days post infection by Giemsa-staining based microscopic analysis (reference value: 31 to 58%); format: functional
[13] = Cytotoxicity against mouse spleen cells; format: cell-based
[14] = Plasma concentration in Crl:NRMI mouse at 50 mg/kg, po administered via gavage measured after 60 mins by LC-MS/MS analysis; format: ADME, organism-based
Plasmodium falciparum [15] = assay: Antiplasmodial activity against asynchronous form of Plasmodium falciparum 3D7 infected in human erythrocytes assessed as parasite growth inhibition after 48 hrs by SYBR green1 staining based flow cytometry; format: functional, organism-based; details: 3D7, 48 h
HFF = assay: Cytotoxicity against HFF; format: cell-based; details: Homo sapiens
Plasmodium falciparum [16] = assay: Antiplasmodial activity against asynchronous form of Plasmodium falciparum 3D7 infected in human erythrocytes assessed as parasite growth inhibition at 10 uM after 48 hrs by SYBR green1 staining based flow cytometry relative to control; format: functional; details: 3D7, 48 h
[17] = Plasma concentration in Crl:NRMI mouse at 10 mg/kg, po administered via gavage measured after 180 mins by LC-MS/MS analysis; format: ADME, organism-based
[18] = Plasma concentration in Crl:NRMI mouse at 10 mg/kg, iv measured after 15 mins by LC-MS/MS analysis; format: ADME, organism-based
[19] = Plasma concentration in Crl:NRMI mouse at 10 mg/kg, iv measured after 60 mins by LC-MS/MS analysis; format: ADME, organism-based
Plasmodium berghei [20] = assay: Antimalarial activity against Plasmodium berghei ANKA infected in BALB/c mouse assessed as reduction in parasitemia at 20 mg/kg, po administered twice daily for 5 days by Giemsa-staining based microscopic analysis; format: functional, organism-based
[21] = Plasma concentration in Crl:NRMI mouse at 10 mg/kg, po administered via gavage measured after 30 mins by LC-MS/MS analysis; format: ADME, organism-based
Plasmodium berghei [22] = assay: Antimalarial activity against Plasmodium berghei ANKA infected in BALB/c mouse assessed as reduction in parasitemia at 20 mg/kg, po administered twice daily for 4 days measured day 6 to 11 post infection by Giemsa-staining based microscopic analysis; format: functional, organism-based
[23] = Plasma concentration in Crl:NRMI mouse at 10 mg/kg, po administered via gavage measured after 60 mins by LC-MS/MS analysis; format: ADME, organism-based
[24] = Plasma concentration in Crl:NRMI mouse at 10 mg/kg, iv measured after 180 mins by LC-MS/MS analysis; format: ADME, organism-based
[25] = Solubility of the compound in DPBS at >1 ug/ml; format: physicochemical
Plasmodium berghei [26] = assay: Antimalarial activity against Plasmodium berghei ANKA infected in BALB/c mouse assessed as reduction in parasitemia at 20 mg/kg, po administered twice daily for 4 days by Giemsa-staining based microscopic analysis; format: functional, organism-based
[27] = Stability in phosphate buffered saline at pH 7.4 assessed as parent compound remaining after 24 hrs by UV/RP-HPLC analysis; format: physicochemical; details: read-out: Stability
Plasmodium berghei [28] = assay: Antimalarial activity against Plasmodium berghei ANKA infected in BALB/c mouse assessed as reduction in parasitemia at 25 mg/kg, po administered twice daily for 4 days by Giemsa-staining based microscopic analysis; format: functional, organism-based
Plasmodium berghei [29] = assay: Antimalarial activity against Plasmodium berghei ANKA infected in BALB/c mouse assessed as reduction in parasitemia at 10 mg/kg, po administered twice daily for 4 days by Giemsa-staining based microscopic analysis; format: functional, organism-based
Plasmodium berghei [30] = assay: Antimalarial activity against Plasmodium berghei ANKA infected in BALB/c mouse assessed as parasitemia at 25 mg/kg, po administered twice daily for 4 days measured up to 14 days post infection by Giemsa-staining based microscopic analysis (reference value: 4%); format: functional
[31] = Toxicity in BALB/c mouse infected with Plasmodium berghei ANKA assessed as death at 50 mg/kg, po administered twice daily for 4 days; format: organism-based; details: in vivo, 96 h
[32] = Toxicity in BALB/c mouse infected with Plasmodium berghei ANKA assessed as death at 25 mg/kg, po administered twice daily for 4 days; format: organism-based; details: in vivo, 96 h

Structure (SMILES)	EC50 [2]	IC50 (Plasmodium falciparum [3])	EC50 [4]	selectivity ratio [5]	IC50 (Plasmodium falciparum [6])	Activity [7]	EC50 [8]	Stability [9]	concentration at 0.5 h [10]	concentration at 3 h [11]	IC50 [13]	concentration at 1 h [14]	IC50 (Plasmodium falciparum [15])	IC50 (HFF)	inhibition at 10 µM (Plasmodium falciparum [16])	further results
COc1cc2c(NC3CCN(Cc4ccccc4)CC3)nc(N3CCN(c4ccccc4)CC3)nc2cc1O	6.2 µM	0.0426 µM	> 100 µM	255	0.0186 µM	Toxic	> 100 µM	Stable	3430 to 4570 nM	290 to 670 nM	2.58 µM	1040 to 3520 nM	0.0101 µM	7.21 µM	100%	Activity (Plasmodium berghei [1]): Active; Activity (Plasmodium berghei [12]): <10%
COc1cc2nc(NCc3ccc(F)cc3)nc(NC3CCN(C(=O)OC(C)(C)C)CC3)c2cc1OC	8.7 µM	0.0185 µM	> 100 µM	> 500	0.0436 µM	–	137 µM	–	–	–	> 10 µM	–	0.0187 to 0.0189 µM	7.17 µM	100%	concentration at 3 h [17]: 30 nM; concentration at 0.25 h [18]: 3410 to 5110 nM; concentration at 1 h [19]: 930 to 1110 nM; Activity (Plasmodium berghei [20]): Active; concentration at 0.5 h [21]: 120 to 130 nM; Activity (Plasmodium berghei [22]): inactive; concentration at 1 h [23]: 100 to 280 nM; concentration at 3 h [24]: 220 to 460 nM; solubility [25]: Insoluble; Activity (Plasmodium berghei [26]): Active; remaining at 24 h [27]: 60%
COc1cc2c(NC3CCN(Cc4ccccc4)CC3)nc(N3CCN(c4ccccc4)CC3)nc2cc1OCc1ccccc1	1.6 µM	0.0813 µM	> 100 µM	> 295	0.0399 µM	Toxic	> 100 µM	Stable	380 to 940 nM	280 to 390 nM	> 10 µM	480 to 700 nM	0.034 µM	5.63 µM	100%	Activity (Plasmodium berghei [28]): Active; Activity (Plasmodium berghei [29]): Active; Activity (Plasmodium berghei [30]): 2%; Activity [31]: Toxic; Activity [32]: Non-Toxic
